Results: patent EP4692088A1, “COMPOUND ACTING AS WRN HELICASE INHIBITOR” (SHANGHAI JEYOU PHARMACEUTICAL CO., LTD., priority 2023, dated 2024)

Legend:
HCT116 cells = test: Cell proliferation assay (CellTiter-Glo), HCT116; format: cell-based; settings: Homo sapiens, 120 h, HCT-116, 5 days incubation
Method: (§1) SW48 cells were plated at a density of 1,500 cells/well, and LoVo, HCT116, and SW620 cells were plated at a density of 800 cells/well in a 96-well cell culture plate, and cultured in a 37°C incubator overnight. The test compounds, which were gradient-diluted with DMSO, were added, and after incubation for 5 days, cell viability was detected using a CellTiter-Glo kit. The CellTiter-Glo reagent was equilibrated to room temperature, and an appropriate amount was added to the cell plate, followed by shaking at room temperature for 12 min. The luminescence signal was detected using a microplate reader.
(§2) The luminescence signal values of the DMSO-treated wells and cell-free wells were used as negative and positive controls, respectively, to calculate the inhibition rate of compound on cell proliferation. The concentration-inhibition curve was fitted using the "log(inhibitor) vs. normalized response -- Variable slope" equation in GraphPad Prism 8 software to obtain the IC50. [formula]

SW48 cells = test: Cell proliferation assay (CellTiter-Glo), SW48; format: cell-based; settings: Homo sapiens, SW48, 120 h, SW-48, 5 days incubation
Method: as §1, §2

LoVo = test: Cell proliferation assay (CellTiter-Glo), LoVo; format: cell-based; settings: Homo sapiens, 120 h, 5 days incubation
Method: as §1, §2

SW620 cells [1] = test: Cell proliferation assay (CellTiter-Glo), SW620; format: cell-based; settings: Homo sapiens, 120 h, SW-620 (MSS), 5 days incubation
Method: as §1, §2

HCT116 = test: γH2AX induction assay (HTRF Phospho-H2AX), HCT116; format: cell-based; settings: Homo sapiens, HCT-116, incubated for 2-3 days, read-out: γ-H2AX induction HCT-116 (EC50 nM)
Method: (§3) SW48, HCT116, and SW620 cells were plated into 96-well cell culture plates at a density of 15,000-25,000 cells/well and cultured overnight in a 37°C incubator. The test compounds, which were gradient-diluted with DMSO, were added and incubated for 2-3 days. The γ-H2AX level was detected using HTRF Phospho-H2AX (SER139) Detection Kits. The 4× Lysis buffer and Detection buffer were equilibrated to room temperature for later use. The 4× Lysis buffer was diluted to 1× Lysis buffer using ddH2O. After the medium was aspirated, 50 µL of 1× Lysis buffer was added to each well and shaken at room temperature for 30 minutes for lysis. 16 µL of lysate was transferred to a 384-well plate, followed by the addition of 4 µL of diluted antibody mixture (Phospho-H2AX d2 antibody and Phospho-H2AX Eu Cryptate antibody were each diluted 20-fold using Detection buffer, and the two antibodies were then mixed uniformly at a 1:1 volume ratio). The mixture was incubated at room temperature for 2-24 h, and fluorescence signals at […] and 615 nm were detected using a microplate reader. Parallel treatment plates were simultaneously set up in the experiment, and cell viability was detected using the CellTiter-Glo kit. The CellTiter-Glo reagent was equilibrated to room temperature, and an appropriate amount was added to the cell plate, followed by shaking at room temperature for 12 min. The luminescence signal was detected using a microplate reader.
(§4) The fluorescence signal values of DMSO-treated wells and positive drug-treated wells were used as negative and positive controls, respectively, to calculate the level of γ-H2AX induced by the compounds. The concentration-induction rate curve was fitted using the "log(agonist) vs. response -- Variable slope (four parameters)" equation in GraphPad Prism 8 software to obtain the EC50. [formula] [formula]

SW48 = test: γH2AX induction assay (HTRF Phospho-H2AX), SW48; format: cell-based; settings: Homo sapiens, SW-48, incubated for 2-3 days, read-out: γ-H2AX induction SW-48 (EC50 nM)
Method: as §3, §4

SW620 cells [2] = test: γH2AX induction assay (HTRF Phospho-H2AX), SW620; format: cell-based; settings: Homo sapiens, SW-620 (MSS), incubated for 2-3 days, read-out: γ-H2AX induction SW-620 (EC50 nM)
Method: as §3, §4

[3] = Pharmacokinetic test in mice; format: in vivo; settings: mouse, CD-1 mice, male, oral gavage, 10 mg/kg, plasma
Method: CD-1 mice were taken as test animals. Example 4, Example 22, and Comparative Example HRO761 were given by gavage. The drug concentrations in mouse plasma at different time points were determined by LC-MS/MS to investigate the pharmacokinetic characteristics of the compounds of the present disclosure in mice.
• Experimental drugs: Example 4, Example 22, and Comparative Example HRO761; • Animals: CD-1 mice, male, 24-25 g, purchased from Shanghai Jihui Laboratory Animal Care Co.,Ltd.
An appropriate amount of Example 4, Example 22, and Comparative Example HRO761 was weighed and sequentially added to an appropriate amount of dimethyl sulfoxide, solutol, and saline (final solvent: 5% DMSO + 10% solutol + 85% saline). The mixture was vortexed and sonicated to prepare a 1.0 mg/mL dosing solution.
Three mice in gavage groups of Example 4, Example 22, and Comparative Example HRO761 were administered by oral gavage after overnight fasting (dose: 10 mg/kg, administration volume: 10 mL/kg), and the mice were fed 4 h after administration.
(§5) 0.04 mL of blood was collected from the animals before administration and at 0.083 h, 0.25 h, 0.5 h, 1 h, 2 h, 4 h, 6 h, 8 h, and 24 h after administration, and anticoagulated with sodium heparin. Blood samples were placed on ice after collection, and plasma was separated by centrifugation (centrifugation conditions: 8000 rpm, 5 min). The collected plasma was stored at -80°C before analysis.
LC-MS/MS was used to determine the content of the test compound in mouse plasma after intragastric administration.
(§6) Based on the calculated concentrations of the compounds in plasma at different time points, the pharmacokinetic parameters of Example 4, Example 22, and Comparative Example HRO761 in mice were calculated using winnonlin software. The pharmacokinetic parameters of Example 4, Example 22, and Comparative Example HRO761 of the present disclosure are shown in Table 13.

[4] = Pharmacokinetic test in rats; format: in vivo; settings: rat, SD rats, male, oral gavage, 10 mg/kg, plasma
Method: SD rats were taken as test animals. Example 4, Example 15, and Comparative Example HRO761 were given by gavage. The drug concentrations in rat plasma at different time points were determined by LC-MS/MS to investigate the pharmacokinetic characteristics of Example 4, Example 15, and Comparative Example HRO761 in rats.
• Experimental drugs: Example 4, Example 15, and Comparative Example HRO761; • Animals: SD rats, male, 240-260 g, purchased from Shanghai Jihui Laboratory Animal Care Co.,Ltd.
An appropriate amount of Example 4, Example 15, and Comparative Example HRO761 was weighed and added to an appropriate amount of dimethyl sulfoxide, solutol, and saline (final solvent: 5% DMSO + 10% solutol + 85% saline). The mixture was vortexed and sonicated to prepare a 1.0 mg/mL dosing solution.
The rats in gavage groups (3 rats per group) of Example 4, Example 15, and Comparative Example HRO761 were administered by oral gavage after overnight fasting (dose: 10 mg/kg, administration volume: 10 mL/kg), and the rats were fed 4 h after administration.
as §5, with “0.2” for “0.04”
The contents of Example 4, Example 15, and Comparative Example HRO761 in rat plasma after oral administration were determined by LC-MS/MS.
as §6, with “15,” for “22,”, “rats” for “mice”, “14.” for “13.”

Work on `CCc1c(N2CCN(C(=O)c3ncnc(C)c3O)CC2)c(=O)n2nc(C3=CCOCC3)nc2n1CC(=O)Nc1ccc(C(F)(F)F)cc1Cl` [HRO761, reference compound] yielded an IC50 (HCT116 cells) of 143 nM, an IC50 (SW48 cells) of 144 nM and an IC50 (LoVo) of 220 nM. It also gave an IC50 (SW620 cells [1]) greater than 25000 nM, an EC50 (HCT116) of 640 nM and an EC50 (SW48) of 324 nM. For the same compound, the EC50 (SW620 cells [2]) was greater than 10000 nM, the Cmax [3] was 11200 ng/mL and the AUC ([3]; read-out: AUC0-i) was 28300 ng·h/mL. The Cmax [4] was 6960 ng/mL and the AUC ([4]; read-out: AUC0-i) was 63600 ng·h/mL.
